Measurements from US6949655B2, “Acyclic piperidine derivatives” (priority 2001, dated 2005).

Test system: rat embryo ventral mesencephalic cells
Assay: Neuroprotection assay (NMDA-induced neuroexcitotoxic injury, 3H-dopamine uptake)
Assay type: cell-based, Sprague-Dawley rat
Conditions: VM cell culture, NMDA 100-400 μM for 20 hours, high affinity 3H-dopamine uptake
Source text: The neuroprotective activity of the compounds of this invention may be assayed using rat embryo ventral mesencephalic cells in culture which are subsequently exposed to the glutamate receptor agonist NMDA. This assay is described in detail in the example section.
The ventral mesencephalic region was dissected out of embryonic day 15 Sprague-Dawley rat embryos (Harlan), dissociated into single cell suspension by a combination of trypsinization and trituration (Costantini et al., Neurobiol Dis., pp. 97-106 (1998). Dissociated VM cells were plated into poly-L-ornithine-coated 96-well plates at a density of 85,000 cells/well in 100 uL of DMEM supplemented with 18% heat-inactivated horse serum, 0.24% glucose, 2 mM glutamine and 50 u/ml pernicillin/streptomycin and incubated in a 5% CO2 incubator. After one day in culture (DIV1), the medium was replaced with 100 μL of a defined medium (DMEM supplemented with 1×N2 cocktail (Gibco-BRL), 0.12% glucose, 2 mM glutamine, and 50 units/ml penicillin/streptomycin) containing DMSO or various concentrations of the compounds of this invention. On DIV5, neuroexcitotoxic injury was induced by the addition of various concentrations of the glutamate receptor agonist NMDA (100-400 μM). Cultures were incubated with the neurotoxin for 20 hours and the effects of neurophilin compounds were assessed using high affinity ^3H-dopamine uptake according to a procedure published by Park and Mytilineou [Brain Res., 599, pp. 83-97 (1992)].

| SMILES | EC50 |
| --- | --- |
| CCN(CC(=O)N1CCN(C(c2ccc(F)cc2)c2ccc(F)cc2)CC1)Cc1ccccc1 [Compound 16] | > 0.5 µM |
| O=C(CN(Cc1ccccc1)Cc1ccccc1)N1CCN(C(c2ccc(F)cc2)c2ccc(F)cc2)CC1 [Compound 20] | > 0.5 µM |
| C[C@@H](c1ccccc1)N(C)CC(=O)N1CCC(Cc2ccccc2)CC1 [Compound 8] | 0.1 to 0.5 µM |
| O=C(CN(Cc1ccccc1)Cc1ccccc1)N1CCN(c2ccccc2)CC1 [Compound 14] | > 0.5 µM |
| CCN(CC(=O)N1CCN(c2ccccc2)CC1)Cc1ccccc1 [Compound 2] | > 0.5 µM |
| C[C@H](c1ccccc1)N(C)CC(=O)N1CCN(C(c2ccc(F)cc2)c2ccc(F)cc2)CC1 [Compound 17] | > 0.5 µM |
| C[C@H](c1ccccc1)N(C)CC(=O)N1CCN(c2ccccc2)CC1 [Compound 3] | > 0.5 µM |
| CCN(CC(=O)N1CCC(Cc2ccccc2)CC1)Cc1ccccc1 [Compound 6] | 0.1 to 0.5 µM |
| CN(C)CC(=O)N1CCN(C(c2ccc(F)cc2)c2ccc(F)cc2)CC1 [Compound 12] | > 0.5 µM |
| C[C@H](c1ccccc1)N(C)CC(=O)N1CCC(Cc2ccccc2)CC1 [Compound 7] | 0.1 to 0.5 µM |
| C[C@@H](C(=O)N1CCN(C(c2ccc(F)cc2)c2ccc(F)cc2)CC1)N(C)Cc1ccccc1 [Compound 19, 2-(Benzyl-methylamino)-1-{4-[bis-4-(4-fluorophenyl)-methyl]-piperazin-1-yl]-propan-1-one] | 0.1 to 0.5 µM |
| O=C(CN(Cc1ccccc1)Cc1ccccc1)N1CCC(Cc2ccccc2)CC1 [Compound 15] | > 0.5 µM |
| C[C@@H](C(=O)N1CCC(Cc2ccccc2)CC1)N(C)Cc1ccccc1 [Compound 5] | < 0.1 µM |
| CN(C)C1(C(=O)N2CCC(Cc3ccccc3)CC2)CCc2ccccc21 (centres unmarked) [Compound 10] | 0.1 to 0.5 µM |
| C[C@@H](C(=O)N1CCN(c2ccc(F)cc2)CC1)N(C)Cc1ccccc1 [Compound 9, 2-(Benzyl-methylamino)-1-[4-(4-fluorophenyl)-piperazin-1-yl]-propan-1-one] | < 0.1 µM |
| C[C@@H](C(=O)N1CCC(Cc2ccc(F)cc2)CC1)N(C)Cc1ccccc1 [Compound 11, 2-(Benzyl-methylamino)-1-[4-(4-fluorobenzyl)-piperidin-1-yl]-propan-1-one] | < 0.1 µM |
| CN(C)CC(=O)N1CCC(Cc2ccccc2)CC1 [Compound 1] | > 0.5 µM |
| CCC(C)[C@@H](C(=O)N1CCC(Cc2ccccc2)CC1)N(C)Cc1ccccc1 (some centres unmarked) [Compound 13] | > 0.5 µM |
| C[C@@H](c1ccccc1)N(C)CC(=O)N1CCN(C(c2ccc(F)cc2)c2ccc(F)cc2)CC1 [Compound 18] | > 0.5 µM |
| C[C@@H](c1ccccc1)N(C)CC(=O)N1CCN(c2ccccc2)CC1 [Compound 4] | > 0.5 µM |
